Data: article PMC6408838, “Bioassay-guided isolation and identification of gametocytocidal compounds from Artemisia afra (Asteraceae)” (Malaria Journal, 2019)
Values after ≈ are worked out from the molar mass of the structure shown. Values joined by “and” are separate entries in the source; they are usually repeats but may differ in a detail not shown here. Equal entries are not always repeated. Where two headings read alike, the source gives them in different places.

Legend:
[1] = system: early-stage gametocytes (> 85% stage II–III) of P. falciparum (NF54 strain); test: pLDH assay, early-stage gametocyte viability; format: cell-based, Plasmodium falciparum; conditions: n = 3; for IC50 value, Early stage gametocytes: 1–2% gametocytaemia; for IC50: Plasmodium falciparum, NF54, 1–2% gametocytaemia
Procedure: (§1) The chloroquine-sensitive P. falciparum (NF54 strain) was cultured as described by […] et al. […] Gametocytogenesis initiation, induction and gametocyte culturing was done as described by Reader et al.. […] Both methylene blue (MB) and artemisinin (ART) was used as gametocytocidal drug controls and chloroquine for asexual drug control. Assay data were normalized against untreated Plasmodium parasites and HepG2 cell controls. […] Data were analysed on Microsoft Excel and sigmoidal dose-response curves were plotted using GraphPad Prism (v5). […] Statistical analysis was carried out on GraphPad Prism (v5) using unpaired Student-t test with a level of significance of P < 0.05.

[2] = system: late-stage gametocytes of Plasmodium falciparum (NF54 strain); test: pLDH assay, late-stage gametocyte viability; format: cell-based; conditions: 72 + 72 h pLDH assay; for IC50: Plasmodium falciparum, NF54, 72 h
Procedure: as §1

[3] = system: HepG2 cells; test: LDH leakage cytotoxicity assay; format: cell-based; conditions: for cytotoxicity (toxicity): HepG2, at 20 µg/ml; for In vitro cytotoxicity range: HepG2, concentrations of 2.5, 5, 10, and 20 µg/ml
Procedure: (§2) Cytotoxicity assays were assessed on the HepG2 cell line (20,000 cells/well) as previously described. […] was as used as cytotoxic positive control. Assay data were normalized against untreated Plasmodium parasites and HepG2 cell controls. […] Data were analysed on Microsoft Excel and sigmoidal dose-response curves were plotted using GraphPad Prism (v5). Unless otherwise stated, all data have been expressed as mean ± SEM (n ≥ 2, carried out in three technical repeats).

[4] = system: intra-erythrocytic asexual P. falciparum (NF54 strain) parasites; test: pLDH assay, intra-erythrocytic asexual parasites; format: cell-based, Plasmodium falciparum; conditions: 1% parasitaemia; for IC50 value, Asexual stages: 72 h, n = 2; for IC50: Plasmodium falciparum, NF54, 72 h, n = 2, read-out: IC50 value, Asexual stages (converted)
Procedure: as §1

[5] = LDH leakage cytotoxicity assay; format: cell-based; conditions: human, HepG2 cells; HepG2, LDH leakage, positive control, n = 3
Procedure: as §2

[6] = system: mature, stage-V gametocytes (> 90% stage V); set-up: method as in PMID 26749441; conditions: > 90% stage V gametocytes; cited from earlier work
[7] = 1–2% gametocytaemia, n = 3, read-out: IC50 value, Late stage gametocytes
[8] = unpaired assays, n = 1, technical triplicate, 10-fold serial dilution, read-out: IC50, late-stage gametocytes (drug controls)

Row | Structure (SMILES) | IC50 value, Early stage gametocytes [1] [µg/mL] | IC50 [1] [µM] | IC50 value, Late stage gametocytes ([2]; 1–2% gametocytaemia, n = 3) [µg/mL] | IC50 [2, 7] | cytotoxicity (toxicity) [3] [%] | In vitro cytotoxicity range [3] | IC50 value, Asexual stages [4] [µg/mL] | IC50 [4] | IC50 [2, 8] [µM] | further results
1 | C=C1C(=O)O[C@H]2C1[C@@H](OC(C)=O)CC(=C)[C@]1(O)C=C[C@@](C)(O)[C@H]21 (stereo partly drawn) [Compound 1, 1α,4α-dihydroxybishopsolicepolide] | 5.6 ± 0.2 (≈ 17.5 µM) | 17.5 | 2 | 6.3 µM | < 10 | 0.03–9.47% | 6.0 (≈ 18.7 µM) | < 10 µg/mL and 18.7 µM | – | IC50 value, Late stage gametocytes ([2]; 1–2% gametocytaemia, n = 3, listed as 1α,4α-dihydroxybishopsolicepolide): < 10 µg/mL
2 | C=C1C(=O)O[C@H]2[C@H]1[C@@H](OC(C)=O)C[C@@](C)(O)[C@@]13O[C@@H]1[C@@H]1O[C@]1(C)[C@H]23 [Compound 2, yomogiartemin] | 4.4 ± 0.3 (≈ 13.1 µM) | 13.1 | 5.3 | < 10 µg/mL and 15.8 µM | < 10 | 0.40–8.35% | 3.8 ± 1.2 (≈ 11.3 µM) | 11.3 µM | – | IC50 value, Early stage gametocytes ([1]; listed as yomogiartemin): < 10 µg/mL; IC50 value, Asexual stages ([4]; listed as yomogiartemin): < 10 µg/mL
3 | CC[C@H]1CN2CCc3cc(OC)c(OC)cc3[C@@H]2C[C@@H]1C[C@H]1NCCc2cc(OC)c(OC)cc21 [Emetine, reference compound] | – | – | – | – | – | – | – | – | – | cytotoxicity ([3]; HepG2, 100 µM, positive control): > 50%; EC50 [5]: 4.7 µg/mL (≈ 9.78 µM)
4 | CN(C)c1ccc2nc3ccc(=[N+](C)C)cc-3sc2c1 [Methylene blue, methylene blue, reference compound] | – | – | – | – | – | – | – | – | 0.031 | –
5 | C[C@@H]1CC[C@H]2[C@@H](C)C(=O)O[C@@H]3O[C@@]4(C)CC[C@@H]1[C@]32OO4 [artemisinin, reference compound] | – | – | – | – | – | – | – | – | 0.057 | IC50 [6]: > 12.5 µM
